In ChEMBL document CHEMBL3739353, “Arthroamide, a Cyclic Depsipeptide with Quorum Sensing Inhibitory Activity from Arthrobacter sp” (J Nat Prod, 2015):
Calls of active or inactive are those of the source. No cut-off for these calls is given here.

Columns and labels:
[1] = molecular target: T1, Accessory gene regulator protein A (Staphylococcus aureus) (UniProt P0A0I7); assay: Inhibition of agr-mediated quorum sensing in Staphylococcus aureus at 5 to 10 uM after 5 hrs by luminescence analysis
T1 sequence (whole entry): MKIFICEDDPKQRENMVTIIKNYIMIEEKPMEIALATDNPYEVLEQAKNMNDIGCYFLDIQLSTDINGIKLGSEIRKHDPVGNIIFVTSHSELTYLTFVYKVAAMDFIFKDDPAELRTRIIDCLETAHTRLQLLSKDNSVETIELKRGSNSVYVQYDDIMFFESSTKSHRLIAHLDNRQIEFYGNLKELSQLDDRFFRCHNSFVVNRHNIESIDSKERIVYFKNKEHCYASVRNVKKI

Candida albicans = assay: Antimicrobial activity against Candida albicans at 100 ug/ml; format: functional, organism-based
Escherichia coli = assay: Antimicrobial activity against Escherichia coli at 100 ug/ml; format: functional, organism-based
Micrococcus luteus = assay: Antimicrobial activity against Micrococcus luteus at 100 ug/ml; format: functional, organism-based

| SMILES | inhibition [1] [%] | Activity (Candida albicans) | Activity (Escherichia coli) | Activity (Micrococcus luteus) |
| --- | --- | --- | --- | --- |
| CC[C@H](C)[C@@H]1NC(=O)[C@@H](C)NC(=O)[C@H](C(C)C)NC(=O)C[C@H](/C=C/c2ccccc2)OC(=O)[C@H](C(C)C)NC1=O | 10 |  |  |  |
| CC(C)[C@@H]1NC(=O)C[C@H](/C=C/c2ccccc2)OC(=O)[C@H](C(C)C)NC(=O)[C@H](C(C)C)NC(=O)[C@@H](C)NC1=O | 10 | inactive | inactive | inactive |
